Patent US20250382322A1, “DIAGNOSTICS FOR DETECTING ECTO-5'-NUCLEOTIDASE (CD73)” (EBERHARD KARLS UNIVERSITÄT TÜBINGEN, priority 2022, published 2025)

How the values were obtained:
human P2Y12 receptor = molecular target: T1, human P2Y12 receptor (Homo sapiens, UniProt Q9H244); assay: β-arrestin recruitment assay at P2Y12 receptor; type: cell-based; conditions: CHO-PK1 cells; for IC50: 2-methylthio-ADP as agonist at EC80 (3 μM), read-out: Inhibition P2Y12 receptor IC50; for EC50: read-out: Activation P2Y12 receptor EC50
T1 construct: host or cells: CHO-PK1 cells (so in the source)
T1 sequence (Q9H244 whole entry): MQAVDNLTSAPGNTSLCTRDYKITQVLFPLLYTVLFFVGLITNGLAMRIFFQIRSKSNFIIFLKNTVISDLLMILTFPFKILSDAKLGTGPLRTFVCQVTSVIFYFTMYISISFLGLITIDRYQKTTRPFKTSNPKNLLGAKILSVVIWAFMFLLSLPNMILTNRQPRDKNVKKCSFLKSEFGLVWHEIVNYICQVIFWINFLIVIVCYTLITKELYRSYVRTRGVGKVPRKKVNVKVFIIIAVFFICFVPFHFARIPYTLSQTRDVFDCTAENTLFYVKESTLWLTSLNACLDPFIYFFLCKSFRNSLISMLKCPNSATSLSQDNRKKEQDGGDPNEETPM
Source text: The interaction of 2 with the human P2Y12 receptor was investigated in a β-arrestin recruitment assay using the galactosidase complementation technology as previously described.^25-27 The human P2Y12 receptor was expressed in CHO-PK1 cells (Eurofins DiscoverX, Fremont, CA, USA). For results see Table 2 and Table 3.

human P2Y1 receptor = molecular target: T2, human P2Y1 receptor (Homo sapiens, UniProt P47900); assay: Calcium mobilization assay at P2Y1 receptor; type: cell-based; conditions: 1231N1 astrocytoma cells
T2 construct: expressed in transfected cells; host or cells: 1321N1 astrocytoma cells (printed '1231N1 astrocytomna cells')
T2 sequence (P47900 whole entry): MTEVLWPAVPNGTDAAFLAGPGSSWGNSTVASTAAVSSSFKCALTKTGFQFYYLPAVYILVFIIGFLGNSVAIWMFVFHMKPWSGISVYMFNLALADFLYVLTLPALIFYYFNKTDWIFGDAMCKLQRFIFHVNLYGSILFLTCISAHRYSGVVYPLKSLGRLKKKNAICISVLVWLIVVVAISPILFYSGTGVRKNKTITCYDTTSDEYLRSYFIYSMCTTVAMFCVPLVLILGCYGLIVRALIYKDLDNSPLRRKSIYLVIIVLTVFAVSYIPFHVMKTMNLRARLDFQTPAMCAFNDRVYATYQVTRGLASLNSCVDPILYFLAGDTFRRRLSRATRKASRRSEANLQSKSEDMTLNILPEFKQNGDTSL
Procedure: Interaction of 2 with the ADP-activated human P2Y1 receptor, which is Gq protein-coupled, was determined by calcium mobilization assays. The receptor was stably expressed in 1231N1 astrocytomna cells^25, 26 (for results see Table 2). Compound 20 was not tested at the P2Y1 receptor since the fluorescent compound would interfere with the calcium mobilization assay.

[1] = molecular target: T3, native membrane-anchored human CD73 (in MDA-MB-231 cell membrane preparations) (Homo sapiens, UniProt P21589); assay: CD73 enzyme inhibition assay with [2,8-3H]AMP, MDA-MB-231 membrane preparations; type: biochemical; conditions: [2,8-3H]AMP (5 μM) as substrate, read-out: Human CD73 MDA-MB-231 Ki ± SEM
T3 construct: membrane preparations of MDA-MB-231 cells; endogenous in cells; host or cells: MDA-MB-231 cell membrane preparations
T3 sequence (P21589 27-549 limits assumed): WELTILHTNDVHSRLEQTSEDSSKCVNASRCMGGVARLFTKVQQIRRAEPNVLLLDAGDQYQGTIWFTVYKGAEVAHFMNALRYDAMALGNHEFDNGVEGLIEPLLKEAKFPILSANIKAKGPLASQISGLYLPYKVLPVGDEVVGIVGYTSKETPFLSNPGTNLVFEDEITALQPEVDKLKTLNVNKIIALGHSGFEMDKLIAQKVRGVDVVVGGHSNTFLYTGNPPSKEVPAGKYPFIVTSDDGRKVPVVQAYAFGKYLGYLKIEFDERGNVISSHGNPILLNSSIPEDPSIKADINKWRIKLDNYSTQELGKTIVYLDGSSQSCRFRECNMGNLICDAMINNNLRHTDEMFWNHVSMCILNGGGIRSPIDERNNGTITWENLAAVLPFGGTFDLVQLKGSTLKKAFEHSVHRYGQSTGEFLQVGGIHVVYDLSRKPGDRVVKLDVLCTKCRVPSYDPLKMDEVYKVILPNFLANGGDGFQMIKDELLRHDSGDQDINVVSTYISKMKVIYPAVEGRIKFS
Procedure: Compound 2b, its precursor 1, and 20 were investigated for their CD73-inhibitory potency using tritium-labeled AMP as a substrate.^20 After incubation with CD73, non-hydrolyzed substrate and inorganic phosphate were precipitated using a solution of lanthanum chloride, and the precipitate was separated from the solution containing the reaction product [2,8-^3H]adenosine by filtration through GF/B glass fiber filters (WhatmanTM GE Healthcare, Chicago, IL, USA) using a cell harvester (M-48, Brandel, Gaitherburg, MD, USA). The filtrates (ca. 1.8 mL each) were transferred to scintillation vials, scintillation cocktail ULTIMA Gold XR (PerkinElmer, Waltham, MA, USA) was added (5 mL), and the radioactivity esd quantified by scintillation counting. CD73 preparations were (1) recombinant soluble human CD73,^13 (2) recombinant soluble rat CD73,^21 both expressed in Spodoptera frugiperda 9 (Sf) cells, (3) membrane preparations of MDA-MB-231 cells,^16 a human triple-negative breast cancer cell line with high expression of CD73,^18 and (4) membrane preparations of the 4T1.2 cell line, a mouse CD73-expressing breast cancer cell line.^22 The potency of the compounds was determined by measurements of full concentration-inhibition curves. K values were calcuated from the obtained IC50 values employing the Cheng-Prusoff equation.^23 […]

An IC50 (human P2Y12 receptor) of over 10 µM, an EC50 (human P2Y12 receptor) of over 10 µM and an IC50 (human P2Y1 receptor; 2-methylthio-ADP as agonist at EC80 (3 μM), read-out: Inhibition P2Y1 receptor IC50) of over 10 µM were found for `CCCN(Cc1ccc(-c2cn(CCF)nn2)cc1)c1nc(Cl)nc2c1ncn2[C@@H]1O[C@H](COP(=O)(O)CP(=O)(O)O)C(O)C1O` (some centres unmarked) [Compound 2] in this work. The EC50 (human P2Y1 receptor; read-out: Activation P2Y1 receptor EC50) was over 10 µM and the Ki [1] was 0.00278 ± 0.00047 µM.

An IC50 (human P2Y12 receptor) of over 10 µM, an EC50 (human P2Y12 receptor) of over 10 µM and a Ki [1] of 0.00676 ± 0.00125 µM were found for `O=C(NCCCCCCNC(=O)c1ccc2c(c1)C1(OC2=O)c2ccc(O)cc2Oc2cc(O)ccc21)c1ccc(CNc2nc(Cl)nc3c2ncn3[C@@H]2O[C@H](COP(=O)(O)CP(=O)(O)O)[C@@H](O)[C@H]2O)cc1` [Compound 20, (((((2R,3S,4R,5R)-5-(2-chloro-6-((4-((6-(3′,6′-dihydroxy-3-oxo-3H-spiro[isobenzofuran-1,9′-xanthene]-6-carboxamido)-hexyl)carbamoyl)benzyl)amino)-9H-purin-9-yl)-3,4-dihydroxytetrahydrofuran-2-yl)methoxy)(hydroxy)phosphoryl)methyl)phosphonic acid] in this work.
